Measurements from patent US10150793B2, “Antagonists of CB1 receptor” (INSERM (Institut National de la Santé et de la Recherche …, priority 2011, dated 2018).

Assays:
TNF-α = assay: Increase in plasma TNF-alpha induced by LPS; type: in vivo, mice; settings: Mus musculus; mice; compounds 6 mg/kg 15 min before LPS
Procedure: Trunk blood was collected and centrifuged at 3000 rpm for 15 min at 4° C. Plasma was stored at −80° C. until measurement of TNFα was carried out. Plasma TNFα levels were assessed using an ELISA kit, following the manufacturer's instructions (Fisher Scientific, Catalog #E6473C).
In this example the inventors further analyzed the ability of pregnenolone to inhibit the effects of CB1 activation in the context of inflammation and fibrosis. […] TNF-alpha is one of the cellular responses to inflammatory stimuli more involved in promoting fibrosis.
(§1) Other pregnenolone derivatives (Table 4) for which the metabolism in downstream active steroids was reduced were tested for their ability to inhibit: 1. effects of the THC-induced cannabinoid tetrade (decrease in body temperature and in locomotor activity, (THC 10 mg/kg, compounds 6 mg/kg 15-30 min before THC) that is recognized as a sound method to evaluate the activation of the CB1 receptor; 2. THC-induced increase in food intake a typical effect of CB1 activation (THC between 0.5 and 1 mg/kg, compounds between 2 and 4 mg/kg 30 min before THC); 3. the increase in TNFalpha induced by LPS, another effects typical of CB1 […] (compounds 6 mg/kg 15 min before LPS). For each compound and each test independent groups of animals were used (at least n=6 per compound/per test).

CHO cells = assay: Study of metabolism in vitro in CHO cells, steroids in culture medium by GC/MS; settings: CHO cells
Procedure: Plasma, brain and culture medium levels of pregnenolone (5-Pregnen-3β-ol-20-one), allopregnanolone (3α-hydroxy-5α-pregnan-20-one), epiallopregnanolone (3β-hydroxy-5α-pregnan-ol-20-one), testosterone, and 5α dihydrotestosterone were determined by GC/MS according to the of estraction, purification and quantification protocol described previously (George O, et al., Biol Psychiatry. 2010 68: 956-63, Vallee M, et al., Anal Biochem. 2000, 287:153-66).
The CHO-K1 cell line (#CCL-61, ATCC-LGC, USA) derived as a subclone from the parental CHO cell line initiated from a biopsy of an adult Chinese hamster ovary was used. The CHO-K1 cells were seeded on 24-well plates (#353047, BD Biosciences, USA) to the appropriate concentration (25×10^4 cells/well) in fresh, antibiotic-free medium constituted by 90% DMEM-Glutamax; (#31966-21, Life technologies, USA) and 10% Fetal Bovine Serum (#10270-106, Life technologies, USA).
In this example the inventors further analyzed the metabolism of pregnenolone derivatives using an in vitro test in CHO cells. These cells derived from the ovary have all the enzymes needed to metabolize pregnenolone in down stream steroids.

CB1 receptor [1] = biological target: T1, CB1 receptor (Mus musculus, UniProt P47746); assay: THC-induced increase in food intake in mice; type: in vivo; set-up: tissue Charles River Laboratories (France) (animals); host or cells: living mice, whole animal; settings: mice; THC between 0.5 and 1 mg/kg; compounds between 2 and 4 mg/kg 30 min before THC
T1 sequence (P47746 whole entry): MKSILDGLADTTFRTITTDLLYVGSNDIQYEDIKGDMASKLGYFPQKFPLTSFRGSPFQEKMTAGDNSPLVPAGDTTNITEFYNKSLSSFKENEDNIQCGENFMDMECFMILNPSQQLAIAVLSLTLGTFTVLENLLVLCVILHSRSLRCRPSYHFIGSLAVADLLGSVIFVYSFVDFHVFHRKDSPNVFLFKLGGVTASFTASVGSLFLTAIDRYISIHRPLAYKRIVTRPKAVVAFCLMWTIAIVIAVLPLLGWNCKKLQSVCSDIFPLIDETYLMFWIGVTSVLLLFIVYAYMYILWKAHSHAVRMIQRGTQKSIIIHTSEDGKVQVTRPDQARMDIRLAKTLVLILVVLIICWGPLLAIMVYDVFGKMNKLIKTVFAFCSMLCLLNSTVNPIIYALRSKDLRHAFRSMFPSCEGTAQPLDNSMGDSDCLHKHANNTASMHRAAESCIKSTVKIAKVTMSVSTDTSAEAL
Procedure: Food intake was evaluated by measuring consumption of food in the home cages of the animals. For each animal, 50-100 g of standard laboratory chow (U.A.R., France) was placed in the cleaned home cage. The remaining amount of food was weighted 1 h later and the amount of food consumed calculated.
as §1

CB1 receptor [2] = biological target: T1, CB1 receptor; assay: THC-induced cannabinoid tetrad (body temperature, locomotor activity, catalepsy, analgesia); type: in vivo, mice; set-up: tissue Charles River Laboratories (France) (animals); host or cells: living mice, whole animal; settings: mice; THC 10 mg/kg; compounds 6 mg/kg 15-30 min before THC
GABA-A receptors = assay: GABA-A receptors-mediated mIPSC in nucleus accumbens principal neurons; type: cell-based, mouse
Procedure: GABA-A receptors-mediated currents: mIPSC were recorded in the presence of the AMPAR and NMDAR antagonists (DNQX 20 μM and AP-5 50 μM, respectably). mEPSC-mIPSC analysis: Typically, after breaking in, cells were left to equilibrate for 20 minutes and the subsequent 10 minutes recording of mEPSC-mIPSC was used to analysis. mEPSC-mIPSC were detected using a template generated from averaging several typical events (Clampfit 10, Molecular Devices). The template was slid along the data trace one point at a time. At each position, the template was optimally scaled and offset to fit the data. A lower-amplitude threshold of 7 pA and 10 pA were applied for mEPSC and mIPSC, respectably, equivalent to 2.5SD of baseline noise. For each cell, the kinetics of mEPSC-mIPSC was measured from the average event using Clampfit 10. To estimate decay times, a two exponentials curve was fitted between 5 and 95% of the decay phase of the current given by the following equation: y(t)=A1·e^(−t/τ1)+A2·e^(−t/τ2), where A is the amplitude, t is the time and τ is the decay time constant. The weighted tau was then calculated.
In order to evaluate the effect of pregnenolone on the function of post-synaptic GABA we recorded mIPSC and compared its amplitude and decay time between groups. We observed that mIPSC amplitude and decay time were similar between controls (amplitude: 17.9±0.8 pA; decay time: 11.1±0.3 ms) and slices pre-treated with pregnenolone (100 nM and 1 μM, respectively; amplitude: 17.3±0.4 pA, 15.9±0.4 pA; decay time: 10.2±0.4 ms, 10.8±0.5 ms).

Structure (SMILES) | inhibition in vivo at 6 mg/kg (TNF-α) [%] | metabolism in downstream active steroids (Reduced metabolism / Metabolized) (CHO cells) | % Inhibition of THC-Induced food intake (CB1 receptor [1]) | % Inhibition temperature decrease (CB1 receptor [2]) | % increase in motor activity (CB1 receptor [2]) | mIPSC amplitude (GABA-A receptors; slices pre-treated with 100 nM) [pA] | mIPSC decay time (GABA-A receptors; slices pre-treated with 100 nM) [ms] | mIPSC amplitude (GABA-A receptors; slices pre-treated with 1 μM) [pA] | mIPSC decay time (GABA-A receptors; slices pre-treated with 1 μM) [ms]
C[C@H](O)[C@H]1CCC2C3CC=C4C[C@@H](O)CC[C@]4(C)C3CC[C@@]21C (stereo partly drawn) [Compound 20, 5-Pregnen-3β,20α-diol] | 65 | Reduced metabolism | 85%, P < 0.03 | 34%, P < 0.04 | 123%, P < 0.04 |  |  |  | 
C[C@@H](O)[C@H]1CCC2C3CCC4=C[C@@H](O)CC[C@]4(C)C3CC[C@@]21C (stereo in doubt) [Compound 12, 4-Pregnen-3β,20α-diol] | 81 | Reduced metabolism | ≥100%, P < 0.001 | 42%, P < 0.004 | 100%, P < 0.16 |  |  |  | 
C[C@@H](O)[C@H]1CCC2C3CCC4=CC(=O)CC[C@]4(C)C3CC[C@@]21C (stereo in doubt) [Compound 18, 4-Pregnen-20α-ol-3-one] | 65 | Reduced metabolism | 30%, P > 0.25 | 25%, P < 0.04 | 146%, P < 0.1 |  |  |  | 
CC(=O)[C@H]1CCC2C3CC[C@@H]4C[C@@H](O)CC[C@]4(C)C3CC[C@@]21C (stereo partly drawn) [Compound 77, 5β-Pregnan-3β-ol-20-one (Epipregnanolone)] | 76 | Reduced metabolism | ≥100%, P < 0.01 | 70%, P < 0.0001 | 177%, P < 0.02 |  |  |  | 
CO[C@H]1CC[C@@]2(C)C(=CCC3C2CC[C@@]2(C)C3CC[C@]2(C)C(C)=O)C1 (stereo partly drawn) [Compound 35, 3β-Methoxy-17α-methylpregnenolone] | 57 | Reduced metabolism |  | 33%, P < 0.01 | −32%, P > 0.24 |  |  |  | 
CC[C@H]1CCC2C3CC=C4C[C@@H](O)CC[C@]4(C)C3CC[C@@]21C (some centres unmarked) [Compound 24, 20-Deoxypregnenolone] | 34 | Reduced metabolism |  | 25%, P < 0.08 | 33%, P > 0.20 |  |  |  | 
CC(=O)[C@@]1(C)CCC2C3CCC4=CC(=O)CC[C@]4(C)C3CC[C@@]21C (stereo partly drawn) [Compound 40, 17α-Methylprogesterone] | 57 | Reduced metabolism | 74%, P < 0.07 | 18%, P < 0.02 | 57%, P < 0.21 |  |  |  | 
CC(=O)[C@H]1CCC2C3CC=C4C[C@@H](OCc5ccccc5)CC[C@]4(C)C3CC[C@@]21C (stereo partly drawn) [Compound 41, 3β-Benzyloxypregnenolone] | 62 | Reduced metabolism |  | 38%, P < 0.001 | 106%, P < 0.03 |  |  |  | 
COC1(C(C)=O)CCC2C3CC=C4C[C@@H](O)CC[C@]4(C)C3CC[C@@]21C (some centres unmarked) [Compound 36, 17-Methoxypregnenolone] | 37 | Reduced metabolism | ≥100%, P < 0.003 | 54%, P < 0.001 | 326%, P < 0.001 |  |  |  | 
CC(=O)[C@H]1CC[C@H]2[C@@H]3CC[C@@H]4CC(=O)CC[C@]4(C)[C@H]3CC[C@]12C [Compound 60, 5β-Pregnan-3,20-dione] | 77 |  | ≥100%, P < 0.002 | 66%, P < 0.0001 | 70%, P < 0.05 |  |  |  | 
CC(=O)[C@H]1CCC2C3CC[C@@H]4C[C@@H](O)CC[C@]4(C)C3CC[C@@]21C (stereo partly drawn) [Compound 46, 5α-Pregnan-3α-ol-20-one (Allopregnanolone), reference compound] |  | Metabolized |  |  |  | 15.9±0.5 | 13.6 ± 0.7 | 20.2±1.2 | 22.7 ± 2.3
CC(=O)[C@@]1(Cc2ccccc2)CCC2C3CC=C4C[C@@H](O)CC[C@]4(C)C3CC[C@@]21C (stereo partly drawn) [Compound 65, 17α-Benzylpregnenolone] | 65 | Reduced metabolism | ≥100%, P < 0.001 | 53%, P < 0.003 | 142%, P < 0.03 |  |  |  | 
C[C@H](O)[C@@]1(O)CCC2C3CCC4=CC(=O)CC[C@]4(C)C3CC[C@@]21C (stereo in doubt) [Compound 14, 4-Pregnen-17α,20α-diol-3-one] | 65 | Reduced metabolism | 70%, P < 0.06 | 45%, P < 0.001 | 277%, P < 0.004 |  |  |  | 
CC(=O)C1=CC[C@H]2[C@@H]3CC=C4CCCC[C@]4(C)[C@H]3CC[C@]12C [Compound 39, 5,16-Pregnadien-20-one] | 46 | Reduced metabolism | ≥100%, P < 0.02 | 56%, P < 0.001 | 309%, P < 0.001 |  |  |  | 
CC(=O)[C@H]1CCC2C3CC=C4CC(N=[N+]=[N-])CC[C@]4(C)C3CC[C@@]21C (some centres unmarked) [Compound 72, 3-Azidopregnenolone] | 61 | Reduced metabolism | ≥100%, P < 0.001 | 34%, P < 0.05 | 145%, P < 0.05 |  |  |  | 
